This passage reports IC50 results from US7407989B2, “Compounds useful for modulating abnormal cell proliferation” (The Hospital for Sick Children, priority 2004, dated 2008).

Each structure is given as a SMILES string.

Experiment [1] relates to normal bone marrow cells (BFU-E colonies). The experiment in a line: Effect upon normal bone marrow differentiation in culture (CFU-GEMM assay, BFU-E colonies). In kind it is cell-based. As to conditions: Bone marrow cell, 336 h, BFU-E colonies evaluated at 14 days, read-out: NBM (BFU-E) IC50. On the procedure:
The CFU-GEMM assay was performed according to Fauser and Messner (1978, Blood, 52(6) 143-8) and Messner and Fausser (1980, Blut, 41(5) 327-33) with some variations. In brief, heparinized bone marrow cells were layered over Percoll (1.077 gm/ml) (Pharmacia Fine Chemical, Piscataway N.J.) and centrifuged at 400 g at 4° C. for 10 minutes to remove neutrophils and RBCs. The fractionated BM cells at […] were cultured in IMDM (OCI, Toronto) containing 0.9% (vol/vol) methylcellulose supplemented with 30% FCS (Cansera Rexdale, ON.) or normal human plasma, a cocktail of cytokines containing G-CSF (10 ng/ml, Amgen), IL-3 (40 U/ml, Immunex), MGF (50 ng/ml, Immunex), Erythropoietin (2 u/ml, Epprex) or TPO (10 ng/ml, Amgen), 5×10^−5 M Bβ-2-mercaptoethanol and the specified concentration of CR4. The culture mixture was plated in 1 ml volumes into 35 mm petri dishes and incubated at 37° C., 5% CO2 in a humidified atmosphere. All cultures were evaluated at 14 days for the number of BFU-E colonies (defined as aggregates of more than 500 hemoglobinized cells or, 3 or more erythroid subcolonies), CFU-GM colonies (defined as granulocyte or monocyte-macrophage cells or both), CFU-Meg colonies (comprising 4 or more megakaryocytes) and CFU-GEMM colonies (a mixed population comprising of all elements).

The subject of experiment [2] is Philadelphia Positive Z119 Acute Lymphoblastic Leukemia Cells. Nature of the experiment: Killing of Philadelphia positive Z119 acute lymphoblastic leukemia cells in culture (colony assay in methylcellulose). Type of experiment: cell-based. As to conditions: colonies of more than 20 cells counted at 7-9 days, no exogenous growth factors, read-out: ALL (Z 119) IC50. The method, then: Z119 cells were plated in 1 ml volumes at a density of 5×10^4 cells/ml, in the absence of exogenous growth factors, into 35 mm petri dishes (Nunc, Gibco) containing IMDM (OCI, Toronto) plus 20% FCS (Cansera Rexdale, ON.) in 0.9% (vol/vol) methylcellulose (Fluka, Switzerland) with the indicated concentration of for various test compounds described above. Cultures were set at 37° C., 5% CO2 in a humidified atmosphere. Colonies consisting of more than 20 cells were counted at 7-9 days using an inverted microscope.

With `COc1cc(/C=C/C=C/C(=O)NCc2ccccc2)ccc1O` [CRD-81, 5-(4-Hydroxy-3-methoxyphenyl)-penta-2E,4E-dienoic acid benzylamide], the IC50 (usually the point on the concentration scale where inhibition reaches its midpoint) in experiment [1] was above 10000 nM; in experiment [2] it was above 1000 nM.

Consider `O=C(/C=C/C=C/c1ccc(O)c(O)c1)NCc1ccccc1` [CRD-82, 5-(3,4-Dihydroxyphenyl)-penta-2E,4E-dienoic acid benzylamide], for which the IC50 in experiment [1] is above 25000 nM; in experiment [2], 460 nM.

Turning to `COc1cc(/C=C/C=C/C(=O)NCc2ccc(O)c(O)c2)cc(OC)c1O` [CRD-84, 5-(4-Hydroxy-3,5-dimethoxyphenyl)-penta-2E,4E-dienoic acid 3,4-dihydroxybenzylamide], the 50% inhibitory concentration (IC50) in experiment [1] was above 10000 nM; in experiment [2], above 1000 nM.

For the compound `COc1cc(/C=C/C=C/C(=O)NCc2ccc(O)c(O)c2)ccc1O` [CRD-85, 5-(4-Hydroxy-3-methoxyphenyl)-penta-2E,4E-dienoic acid 3,4-dihydroxybenzylamide], the IC50 in experiment [1] was above 10000 nM; in experiment [2], above 1000 nM.
